pIC50: −log10 of the molar value.
Tests used:
[1] = tested on: HepG2; test: Cytotoxicity against human HepG2 cells after 48 hrs by MTT assay; type: functional, cell-based; settings: HepG2, 48 h
[2] = tested on: MDA-MB-231; test: Cytotoxicity against human MDA-MB-231 cells after 48 hrs by MTT assay; type: functional, cell-based; settings: MDA-MB-231, 48 h
[3] = tested on: SMMC-7721; test: Cytotoxicity against human SMMC7721 cells after 48 hrs by MTT assay; type: functional, cell-based; settings: SMMC-7721, 48 h
[4] = tested on: HCT-116; test: Cytotoxicity against human HCT116 cells after 48 hrs by MTT assay; type: functional, cell-based; settings: HCT-116, 48 h
[5] = Solubility of the compound; type: physicochemical
[6] = tested on: MCF7; test: Cytotoxicity against human MCF7 cells after 48 hrs by MTT assay; type: functional, cell-based; settings: MCF7, 48 h

solubility [5] | SMILES | pIC50 [1] | pIC50 [2] | pIC50 [3] | pIC50 [4] | pIC50 [6]
Insoluble | CCCCN1C(=O)c2ccc3c4c(ccc(c24)C1=O)C(=O)N(C1CC1)C3=O | < 4.30 | < 4.30 | < 4.30 | 4.79 | < 4.30
Insoluble | CCCCN1C(=O)c2ccc3c4c(ccc(c24)C1=O)C(=O)N(CC1CC1)C3=O | < 4.30 | < 4.30 | < 4.30 | 4.49 | < 4.30
– | CN(C)CCCN1C(=O)c2ccc3c4c(ccc(c24)C1=O)C(=O)N(CCCO)C3=O | 5.22 | 5.21 | 5.35 | 5.28 | 5.47
Insoluble | CCCCN1C(=O)c2ccc3c4c(ccc(c24)C1=O)C(=O)N(C1CCCCC1)C3=O | < 4.30 | < 4.30 | < 4.30 | 4.34 | < 4.30
Insoluble | CCCCN1C(=O)c2ccc3c4c(ccc(c24)C1=O)C(=O)N(CC(C)C)C3=O | 4.34 | < 4.30 | 4.44 | 4.55 | 4.40
– | O=C1c2ccc3c4c(ccc(c24)C(=O)N1CCCO)C(=O)N(CCCN1CCOCC1)C3=O | 5.51 | 5.12 | 5.57 | 5.36 | 5.16
– | CCCCN1C(=O)c2ccc3c4c(ccc(c24)C1=O)C(=O)N(c1ncccn1)C3=O | 4.77 | 4.82 | 4.45 | 5.04 | 4.90
– | CCCCN1C(=O)c2ccc3c4c(ccc(c24)C1=O)C(=O)N(c1cccnc1)C3=O | 4.45 | < 4.30 | 4.42 | 4.44 | < 4.30
– | CCCCN1C(=O)c2ccc3c4c(ccc(c24)C1=O)C(=O)N(CCCN1CCOCC1)C3=O | 4.51 | 4.74 | 4.60 | 4.49 | 4.67
– | CC(C)CN1C(=O)c2ccc3c4c(ccc(c24)C1=O)C(=O)N(CCCO)C3=O | 5.38 | 5.27 | 5.42 | 5.08 | 5.32
– | CN(C)CCN1C(=O)c2cccc3cc(N)cc(c23)C1=O [AMONAFIDE] | 5.02 | 5.18 | 5.03 | 5.19 | 4.89
Insoluble | CCCCN1C(=O)c2ccc3c4c(ccc(c24)C1=O)C(=O)N(CCC)C3=O | < 4.30 | < 4.30 | < 4.30 | < 4.30 | < 4.30

Source: ChEMBL document CHEMBL4257544, “Synthesis and biological evaluation of novel asymmetric naphthalene diimide derivatives as anticancer agents depending on ROS generation” (Medchemcomm, 2018)
